# Laboratory results as given in PubChem BioAssay AID1963985 (Molecular Pharmacology Branch, DTP, NCI, 2024).
# Tested on: 252836-082-R-J2-PDC tumor spheroids, viability
# Test: Anticancer human tumor 252836-082-R-J2-PDC patient-derived head and neck squamous cell carcinoma cell line growth inhibition [PI3K]
# Conditions: spheroids with HUVEC and MSC; for IC50: curve of first compound; for viability, T/C: stronger effect = lower value
# Method in brief: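 Three cell types, namely tumor cells, endothelial cells and mesenchymal stem cells, formed each spheroid. Combinations with four PI3K inhibitors were screened at clinically achievable concentrations decreasing by half-log, and spheroid viability was recorded.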
# [1] = second compound 0.0316 µM, first compound 0.0316 µM
# [2] = second compound 0.0316 µM, first compound 0.1 µM
# [3] = second compound 0.1 µM, first compound 0.0316 µM
# [4] = second compound 0.1 µM, first compound 0.1 µM
# [5] = second compound 0.316 µM, first compound 0.0316 µM
# [6] = second compound 0.316 µM, first compound 0.1 µM
# [7] = second compound 1 µM, first compound 0.0316 µM
# [8] = second compound 1 µM, first compound 0.1 µM
# [9] = second compound 3.16 µM, first compound 0.0316 µM
# [10] = second compound 3.16 µM, first compound 0.1 µM
# [11] = second compound 10 µM, first compound 0.0316 µM
# [12] = second compound 10 µM, first compound 0.1 µM
# 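Further: spheroids exposed to agents for seven days before readout.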
# 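Wherever viability, T/C is given: percent of vehicle DMSO control viability so 100% = untreated growth.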
structure (smiles),measurement,setting,value
CC(C)n1nc(-c2ccc3oc(N)nc3c2)c2c(N)ncnc21 + Cc1nc(NC(=O)N2CCCC2C(N)=O)sc1-c1ccnc(C(C)(C)C(F)(F)F)c1,IC50,second compound 0.0316 µM,32.2 nM
same,IC50,second compound 0.1 µM,27.6 nM
same,IC50,second compound 0.316 µM,21.2 nM
same,IC50,second compound 1 µM,12.6 nM
same,IC50,second compound 3.16 µM,< 0.316 nM
same,IC50,second compound 10 µM,< 0.316 nM
same,"viability, T/C","second compound 0.0316 µM, first compound 0.000316 µM",84.3%
same,"viability, T/C","second compound 0.0316 µM, first compound 0.001 µM",76%
same,"viability, T/C","second compound 0.0316 µM, first compound 0.00316 µM",98%
same,"viability, T/C","second compound 0.0316 µM, first compound 0.01 µM",71.5%
same,"viability, T/C",[1],51.7%
same,"viability, T/C",[2],21.3%
same,"viability, T/C","second compound 0.1 µM, first compound 0.000316 µM",83.8%
same,"viability, T/C","second compound 0.1 µM, first compound 0.001 µM",83.1%
same,"viability, T/C","second compound 0.1 µM, first compound 0.00316 µM",79.8%
same,"viability, T/C","second compound 0.1 µM, first compound 0.01 µM",63.9%
same,"viability, T/C",[3],49%
same,"viability, T/C",[4],23%
same,"viability, T/C","second compound 0.316 µM, first compound 0.000316 µM",82.1%
same,"viability, T/C","second compound 0.316 µM, first compound 0.001 µM",73.1%
same,"viability, T/C","second compound 0.316 µM, first compound 0.00316 µM",75.8%
same,"viability, T/C","second compound 0.316 µM, first compound 0.01 µM",59.6%
same,"viability, T/C",[5],44.4%
same,"viability, T/C",[6],20.7%
same,"viability, T/C","second compound 1 µM, first compound 0.000316 µM",56.5%
same,"viability, T/C","second compound 1 µM, first compound 0.001 µM",53.4%
same,"viability, T/C","second compound 1 µM, first compound 0.00316 µM",61.6%
same,"viability, T/C","second compound 1 µM, first compound 0.01 µM",48.7%
same,"viability, T/C",[7],42.6%
same,"viability, T/C",[8],19.5%
same,"viability, T/C","second compound 3.16 µM, first compound 0.000316 µM",43.2%
same,"viability, T/C","second compound 3.16 µM, first compound 0.001 µM",55.2%
same,"viability, T/C","second compound 3.16 µM, first compound 0.00316 µM",47.5%
same,"viability, T/C","second compound 3.16 µM, first compound 0.01 µM",40%
same,"viability, T/C",[9],28.6%
same,"viability, T/C",[10],17.2%
same,"viability, T/C","second compound 10 µM, first compound 0.000316 µM",33.2%
same,"viability, T/C","second compound 10 µM, first compound 0.001 µM",31.1%
same,"viability, T/C","second compound 10 µM, first compound 0.00316 µM",29.6%
same,"viability, T/C","second compound 10 µM, first compound 0.01 µM",35.4%
same,"viability, T/C",[11],18.8%
same,"viability, T/C",[12],8.12%
CC1(C)CCC(CN2CCN(c3ccc(C(=O)NS(=O)(=O)c4ccc(NCC5CCOCC5)c([N+](=O)[O-])c4)c(Oc4cnc5[nH]ccc5c4)c3)CC2)=C(c2ccc(Cl)cc2)C1 + Cc1nc(NC(=O)N2CCCC2C(N)=O)sc1-c1ccnc(C(C)(C)C(F)(F)F)c1,IC50,second compound 0.0316 µM,5420 nM
same,IC50,second compound 0.1 µM,5200 nM
same,IC50,second compound 0.316 µM,4130 nM
same,IC50,second compound 1 µM,4080 nM
same,IC50,second compound 3.16 µM,2740 nM
same,IC50,second compound 10 µM,< 31.6 nM
same,"viability, T/C",[1],91.7%
same,"viability, T/C",[2],77.8%
same,"viability, T/C","second compound 0.0316 µM, first compound 0.316 µM",96.2%
same,"viability, T/C","second compound 0.0316 µM, first compound 1 µM",96.8%
same,"viability, T/C","second compound 0.0316 µM, first compound 3.16 µM",89.8%
same,"viability, T/C","second compound 0.0316 µM, first compound 10 µM",4.76%
same,"viability, T/C",[3],83.1%
same,"viability, T/C",[4],87.5%
same,"viability, T/C","second compound 0.1 µM, first compound 0.316 µM",83.2%
same,"viability, T/C","second compound 0.1 µM, first compound 1 µM",80.9%
same,"viability, T/C","second compound 0.1 µM, first compound 3.16 µM",94.4%
same,"viability, T/C","second compound 0.1 µM, first compound 10 µM",2.88%
same,"viability, T/C",[5],92.8%
same,"viability, T/C",[6],86.1%
same,"viability, T/C","second compound 0.316 µM, first compound 0.316 µM",75.5%
same,"viability, T/C","second compound 0.316 µM, first compound 1 µM",84%
same,"viability, T/C","second compound 0.316 µM, first compound 3.16 µM",64%
same,"viability, T/C","second compound 0.316 µM, first compound 10 µM",3.65%
same,"viability, T/C",[7],63.6%
same,"viability, T/C",[8],63.6%
same,"viability, T/C","second compound 1 µM, first compound 0.316 µM",64%
same,"viability, T/C","second compound 1 µM, first compound 1 µM",65.6%
same,"viability, T/C","second compound 1 µM, first compound 3.16 µM",63.1%
same,"viability, T/C","second compound 1 µM, first compound 10 µM",3.88%
same,"viability, T/C",[9],59.1%
same,"viability, T/C",[10],53.5%
same,"viability, T/C","second compound 3.16 µM, first compound 0.316 µM",46.3%
same,"viability, T/C","second compound 3.16 µM, first compound 1 µM",55.1%
same,"viability, T/C","second compound 3.16 µM, first compound 3.16 µM",49.4%
same,"viability, T/C","second compound 3.16 µM, first compound 10 µM",2.29%
same,"viability, T/C",[11],32.3%
same,"viability, T/C",[12],39.4%
same,"viability, T/C","second compound 10 µM, first compound 0.316 µM",38.9%
same,"viability, T/C","second compound 10 µM, first compound 1 µM",34%
same,"viability, T/C","second compound 10 µM, first compound 3.16 µM",36.1%
same,"viability, T/C","second compound 10 µM, first compound 10 µM",1.57%
